Results: patent US11046714B2, “2,2-difluorodioxolo A2A receptor antagonists” (Merck Sharp & Dohme Corp., priority 2013, dated 2021)

Molecular target: human A2A receptor (Homo sapiens (Human), UniProt P29274)
Assay: competition binding assay using Scintillation Proximity technology
Conditions: membranes from CHO-K1 cells expressing the human A2a receptor; 2.0 nM tritiated compound; Cheng-Prusoff
Procedure, shortened: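 Membranes (1.0 μg) from CHO-K1 cells expressing human A2A were treated with adenosine deaminase, then incubated 1 h at room temperature with compound (3000–0.15 nM) and 2.0 nM tritiated SCH-type ligand on WGA SPA beads in PBS plus 10 mM MgCl2. Nonspecific binding was defined with 1 μM CGS 15943. Ki was derived from EC50 via Cheng-Prusoff.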

Chain of human A2A receptor (P29274 whole entry): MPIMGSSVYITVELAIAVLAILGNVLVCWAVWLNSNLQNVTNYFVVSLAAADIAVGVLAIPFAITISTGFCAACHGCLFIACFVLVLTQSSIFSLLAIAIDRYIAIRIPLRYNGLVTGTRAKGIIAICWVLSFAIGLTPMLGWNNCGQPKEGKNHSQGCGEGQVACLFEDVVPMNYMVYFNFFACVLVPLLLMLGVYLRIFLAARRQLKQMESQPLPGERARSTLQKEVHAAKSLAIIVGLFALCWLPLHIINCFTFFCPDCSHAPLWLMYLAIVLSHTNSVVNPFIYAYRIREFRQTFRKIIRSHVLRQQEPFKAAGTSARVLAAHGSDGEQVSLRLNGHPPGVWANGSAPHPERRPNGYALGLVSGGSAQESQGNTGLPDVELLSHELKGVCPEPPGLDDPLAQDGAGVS

CC1(F)CN(CCc2nc3c4ccc5c(c4nc(N)n3n2)OC(F)(F)O5)C1 [Example 16, 2,2-difluoro-8-[2-(3-fluoro-3-methylazetidin-1-yl)ethyl] [1,3]dioxolo[4,5-h][1,2,4] triazolo[1,5-c]quinazolin-5-amine] was tested, and the Ki was 3.2 nM.

In the case of CCC1(F)CN(CCc2nc3c4ccc5c(c4nc(N)n3n2)OC(F)(F)O5)C1 [Example 17, 8-[2-(3-ethyl-3-fluoroazetidin-1-yl)ethyl]-2,2-difluoro[1,3] dioxolo[4,5-h][1,2,4]triazolo [1,5-c]quinazolin-5-amine], the Ki is reported as 3.5 nM.

Nc1nc2c3c(ccc2c2nc(CCN4CC(F)(C5CC5)C4)nn12)OC(F)(F)O3 [Example 18, 8-[2-(3-cyclopropyl-3-fluoroazetidin-1-yl)ethyl]-2,2-difluoro[1,3]dioxolo[4,5-h][1,2,4]triazolo[1,5-c]quinazolin-5-amine] gave a Ki of 1.6 nM.

For Nc1nc2c3c(ccc2c2nc(CCN4CC(F)(F)C4)nn12)OC(F)(F)O3 [Example 19, 8-[2-(3,3-difluoroazetidin-1-yl)ethyl]-2,2-difluoro[1,3] dioxolo[4,5-h][1,2,4]triazolo [1,5-c]quinazolin-5-amine], the Ki was 3 nM.

For Nc1nc2c3c(ccc2c2nc(CCN4CC(O)(C(F)(F)F)C4)nn12)OC(F)(F)O3 [Example 20, 1-[2-(5-amino-2,2-difluoro [1,3]diozolo[4,5-h][1,2,4]triazolo[1,5-c]quinazolin-8-yl)ethyl]-3-(trifluoromethyl) azetidin-3-ol], the Ki was 12 nM.

Molecule Nc1nc2c3c(ccc2c2nc(CCN4CC(F)(C(F)(F)F)C4)nn12)OC(F)(F)O3 [Example 21, 2,2-difluoro-8-{2-[3-fluoro-3-(trifluoromethyl)azetidin-1-yl]ethyl}[1,3]dioxolo[4,5-h][1,2,4]triazolo[1,5-c]quinazolin-5-amine] has a Ki of 3.4 nM.

C[C@@H]1C[C@H](F)CN1CCc1nc2c3ccc4c(c3nc(N)n2n1)OC(F)(F)O4 [Example 22, 2,2-difluoro-8-{2-[(2R,4S)-4-fluoro-2-methylpyrrolidin-1-yl]ethyl}[1,3]dioxolo[4,5-h][1,2,4]triazolo[1,5-c]quinazolin-5-amine] gave a Ki of 1.5 nM.

Nc1nc2c3c(ccc2c2nc(CCN4C[C@H](F)[C@@H](F)C4)nn12)OC(F)(F)O3 [Example 23, 8-{2-[(3S,4S)-3,4-difluoropyrrolidin-1-yl]ethyl}-2,2-difluoro[1,3]dioxolo[4,5-h][1,2,4]triazolo[1,5-c]quinazolin-5-amine] gave a Ki of 1.6 nM.

Nc1nc2c3c(ccc2c2nc(CCN4CCC(F)(F)C4)nn12)OC(F)(F)O3 [Example 24, 8-[2-(3,3-difluoropyrrolidin-1-yl)ethyl]-2,2-difluoro[1,3] dioxolo[4,5-h][1,2,4]triazolo [1,5-c]quinazolin-5-amine] gave a Ki of 1.4 nM.

Work on C[C@@H]1CC(F)(F)CN1CCc1nc2c3ccc4c(c3nc(N)n2n1)OC(F)(F)O4 [Example 25] yielded a Ki of 1.1 nM.

Work on C[C@H]1CC(F)(F)CN1CCc1nc2c3ccc4c(c3nc(N)n2n1)OC(F)(F)O4 [Example 26, 8-{2-[(2S)-4,4-difluoro-2-methylpyrrolidin-1-yl]ethyl}-2,2-difluoro[1,3]dioxolo[4,5-h][1,2,4]triazolo[1,5-c]quinazolin-5-amine] yielded a Ki of 3 nM.

With Nc1nc2c3c(ccc2c2nc(CCN4CCC(F)CC4)nn12)OC(F)(F)O3 [Example 27, 2,2-difluoro-8-[2-(4-fluoropiperidin-1-yl)ethyl] [1,3]dioxolo[4,5-h][1,2,4] triazolo[1,5-c]quinazolin-5-amine] the Ki was 7.8 nM.

CC1(F)CCN(CCc2nc3c4ccc5c(c4nc(N)n3n2)OC(F)(F)O5)CC1 [Example 28, 2,2-difluoro-8-[2-(4-fluoro-4-methylpiperidin-1-yl)ethyl] [1,3]dioxolo[4,5-h][1,2,4] triazolo[1,5-c]quinazolin-5-amine] showed a Ki of 11 nM.

Nc1nc2c3c(ccc2c2nc(CCN4CCCC(F)(F)C4)nn12)OC(F)(F)O3 [Example 29, 8-[2-(3,3-difluoropiperidin-1-yl)ethyl]-2,2-difluoro[1,3] dioxolo[4,5-h][1,2,4]triazolo [1,5-c]quinazolin-5-amine] was tested, and the Ki was 1.6 nM.

Work on Nc1nc2c3c(ccc2c2nc(CCN4CCC(F)(F)CC4)nn12)OC(F)(F)O3 [Example 30, 8-[2-(4,4-difluoropiperidin-1-yl)ethyl]-2,2-difluoro[1,3] dioxolo[4,5-h][1,2,4]triazolo [1,5-c]quinazolin-5-amine] yielded a Ki of 2.6 nM.

Work on C[C@@H]1CC(F)(F)CCN1CCc1nc2c3ccc4c(c3nc(N)n2n1)OC(F)(F)O4 [Example 31, 8-{2-[(2R)-4,4-difluoro-2-methylpiperidin-1-yl]ethyl}-2,2-difluoro[1,3]dioxolo[4,5-h][1,2,4]triazolo[1,5-c]quinazolin-5-amine] yielded a Ki of 2.2 nM.

Nc1nc2c3c(ccc2c2nc(CCN4CC5COCC(C4)C5(F)F)nn12)OC(F)(F)O3 [Example 32, 8-[2-(9,9-difluoro-3-oxa-7-azabicyclo[3.3.1]non-7-yl)ethyl]-2,2-difluoro[1,3]dioxolo [4,5-h][1,2,4]triazolo[1,5-c]quinazolin-5-amine] gave a Ki of 40 nM.

For CC1(C)CN(CCc2nc3c4ccc5c(c4nc(N)n3n2)OC(F)(F)O5)C1 [Example 33, 8-[2-(3,3-dimethylazetidin-1-yl)ethyl]-2,2-difluoro[1,3]dioxolo [4,5-h][1,2,4]triazolo[1,5-c]quinazolin-5-amine], the Ki was 29 nM.

C[C@@H]1CC[C@@H](C)N1CCc1nc2c3ccc4c(c3nc(N)n2n1)OC(F)(F)O4 [Example 34, 8-{2-[(2R,5R)-2,5-dimethylpyrrolidin-1-yl]ethyl}-2,2-difluoro[1,3]dioxolo[4,5-h][1,2,4]triazolo[1,5-c]quinazolin-5-amine] gave a Ki of 11 nM.

In the case of Nc1nc2c3c(ccc2c2nc(CCN4CC5CC5C4)nn12)OC(F)(F)O3 (stereo not drawn) [Example 35, 8-[2-(3-azabicyclo[3.1.0]hex-3-yl)ethyl]-2,2-difluoro[1,3] dioxolo[4,5-h][1,2,4]triazolo [1,5-c]quinazolin-5-amine], the Ki is reported as 3 nM.

With Nc1nc2c3c(ccc2c2nc(CCN4CC[C@@H](c5ccccc5)C4)nn12)OC(F)(F)O3 [Example 36, 2,2-difluoro-8-{2-[(3S)-3-phenylpyrrolidin-1-yl]ethyl}[1,3]dioxolo[4,5-h][1,2,4]triazolo[1,5-c]quinazolin-5-amine] the Ki was 39 nM.

Molecule Nc1nc2c3c(ccc2c2nc(CCN4CC[C@H](c5ccccc5)C4)nn12)OC(F)(F)O3 [Example 37, 2,2-difluoro-8-{2-[(3R)-3-phenylpyrrolidin-1-yl]ethyl}[1,3]dioxolo[4,5-h][1,2,4]triazolo[1,5-c]quinazolin-5-amine] has a Ki of 20 nM.

Work on CC1CCN(CCc2nc3c4ccc5c(c4nc(N)n3n2)OC(F)(F)O5)CC1 [Example 38, 2,2-difluoro-8-[2-(4-methylpiperidin-1-yl)ethyl][1,3]dioxolo[4,5-h][1,2,4]triazolo[1,5-c]quinazolin-5-amine] yielded a Ki of 27 nM.

Work on CC1(C)CCCN(CCc2nc3c4ccc5c(c4nc(N)n3n2)OC(F)(F)O5)C1 [Example 39, 8-[2-(3,3-dimethylpiperidin-1-yl)ethyl]-2,2-difluoro[1,3] dioxolo[4,5-h][1,2,4]triazolo [1,5-c]quinazolin-5-amine] yielded a Ki of 67 nM.

CO[C@@H]1CCCN(CCc2nc3c4ccc5c(c4nc(N)n3n2)OC(F)(F)O5)C1 [Example 40, 2,2-difluoro-8-{2-[(3R)-3-methoxypiperidin-1-yl]ethyl}[1,3]dioxolo[4,5-h][1,2,4]triazolo[1,5-c]quinazolin-5-amine] was tested, and the Ki was 13 nM.

For CC1=CCN(CCc2nc3c4ccc5c(c4nc(N)n3n2)OC(F)(F)O5)CC1 [Example 41, 2,2-difluoro-8-[2-(4-methyl-3,6-dihydropyridin-1(2H)-yl)ethyl][1,3]dioxolo[4,5-h][1,2,4]triazolo[1,5-c]quinazolin-5-amine], the Ki was 3.8 nM.

C[C@@H]1CN(CCc2nc3c4ccc5c(c4nc(N)n3n2)OC(F)(F)O5)CCO1 [Example 42, 2,2-difluoro-8-{2-[(2R)-2-methylmorpholin-4-yl]ethyl}[1,3]dioxolo[4,5-h][1,2,4]triazolo[1,5-c]quinazolin-5-amine] showed a Ki of 11 nM.

With C[C@H]1COCCN1CCc1nc2c3ccc4c(c3nc(N)n2n1)OC(F)(F)O4 [Example 43, 2,2-difluoro-8-{2-[(3S)-3-methylmorpholin-4-yl]ethyl}[1,3]dioxolo[4,5-h][1,2,4]triazolo[1,5-c]quinazolin-5-amine] the Ki was 7.8 nM.

In the case of C[C@@H]1CN(CCc2nc3c4ccc5c(c4nc(N)n3n2)OC(F)(F)O5)C[C@H](C)O1 [Example 44, 8-{2-[(2R,6S)-2,6-dimethylmorpholin-4-yl]ethyl}-2,2-difluoro[1,3]dioxolo[4,5-h][1,2,4]triazolo[1,5-c]quinazolin-5-amine], the Ki is reported as 45 nM.

Cc1ncc(N2CCN(CCc3nc4c5ccc6c(c5nc(N)n4n3)OC(F)(F)O6)[C@H](C)C2)s1 [Example 45, 2,2-difluoro-8-{2-[(2R)-2-methyl-4-(2-methyl-1,3-thiazol-5-yl)piperazin-1-yl]ethyl} [1,3]dioxolo[4,5-h][1,2,4] triazolo[1,5-c]quinazolin-5-amine] gave a Ki of 1.5 nM.

With C[C@@H]1CN(c2nsnc2Cl)CCN1CCc1nc2c3ccc4c(c3nc(N)n2n1)OC(F)(F)O4 [Example 46, 8-{2-[(2R)-4-(4-chloro-1,2,5-thiadiazol-3-yl)-2-methylpiperazin-1-yl]ethyl}-2,2-difluoro[1,3]dioxolo[4,5-h][1,2,4]triazolo[1,5-c]quinazolin-5-amine] the Ki was 1.8 nM.

CN1CCN(CCc2nc3c4ccc5c(c4nc(N)n3n2)OC(F)(F)O5)CC1=O [Example 47, 4-[2-(5-amino-2,2-difluoro[1,3]dioxolo[4,5-h][1,2,4]triazolo [1,5-c]quinazolin-8-yl)ethyl]-1-methylpiperazin-2-one] gave a Ki of 1.7 nM.

With Nc1nc2c3c(ccc2c2nc(CCN4CCN(CC5CC5)C(=O)C4)nn12)OC(F)(F)O3 [Example 48, 4-[2-(5-amino-2,2-difluoro[1,3]dioxolo[4,5-h][1,2,4]triazolo [1,5-c]quinazolin-8-yl)ethyl]-1-(cyclopropylmethyl)piperazin-2-one] the Ki was 0.8 nM.
